Measurements from article PMC9444293 (Investigative Radiology, 2022).
Read-outs that look alike come from different tables or passages of the source. Marks after values point to notes of the source that are not given here.

How the values were obtained:
[1] = ref Szomolanyi et al, 23; cited from earlier work
[2] = market formulation; ref Port et al, 24; cited from earlier work
[3] = rat
[4] = IV 0.1 mmol Gd/kg bw
[5] = formulation; ref Port et al, 24; cited from earlier work
Partition coefficient = type: physicochemical; conditions: pH 7.4, room temperature
[6] = type: physicochemical; conditions: 37°C, pH 7.4, 21 days, LLOQ 0.1 nmol Gd/g
[7] = Number of inner sphere water molecules; type: physicochemical; conditions: per Gd
[8] = cited from earlier work
[9] = type: physicochemical; conditions: after 3 days
[10] = ref Port et al, 24; cited from earlier work
[11] = pH 7.4; cited from earlier work
[12] = 7 days after single IV 0.1 mmol Gd/kg bw
[13] = 7 days after single IV 0.1 mmol Gd/kg bw, LLOQ 0.05

## O=C([O-])CN1CCN(CC(=O)[O-])CCN([C@H](CO)[C@H](O)CO)CCN(CC(=O)[O-])CC1.[Gd+3] (racemic) [Gadobutrol, gadobutrol, reference compound]
[1]
  r1-Relaxivity in Human Plasma at 37°C, 3.0 T: 5.0 ± 0.6§ mM^−1 s^−1
[2]
  Osmolality at 37°C: 1603∥ mosmol/kg H2O
[3]; [12]
  Gadolinium concentration, Bone marrow: 0.628 ± 0.420 nmol Gd/g wet tissue
  Gadolinium concentration, Carcass: 0.590 ± 0.162 nmol Gd/g wet tissue
  Gadolinium concentration, Heart: 0.127 ± 0.004 nmol Gd/g wet tissue
  Gadolinium concentration, Intestine: 0.453 ± 0.233 nmol Gd/g wet tissue
  Gadolinium concentration, Kidney: 19.6 ± 1.47 nmol Gd/g wet tissue
  Gadolinium concentration, Liver: 0.312 ± 0.054 nmol Gd/g wet tissue
  Gadolinium concentration, Lung: 0.218 ± 0.046 nmol Gd/g wet tissue
  Gadolinium concentration, Mesenterial lymph nodes: 0.631 ± 0.113 nmol Gd/g wet tissue
  Gadolinium concentration, Muscle: 0.074 ± 0.013 nmol Gd/g wet tissue
  Gadolinium concentration, Skin: 0.202 ± 0.057 nmol Gd/g wet tissue
  Gadolinium concentration, Spleen: 0.382 ± 0.101 nmol Gd/g wet tissue
  Gadolinium concentration, Stomach: 0.155 ± 0.010 nmol Gd/g wet tissue
[3]; [13]
  Gadolinium concentration, Blood: <0.05* nmol Gd/g wet tissue
  Gadolinium concentration, Brain: <0.05* nmol Gd/g wet tissue
[3]; femur, 7 days after single IV 0.1 mmol Gd/kg bw
  Gadolinium concentration, Bone: 1.013 ± 0.767 nmol Gd/g wet tissue
[3]; in vivo, iv
  Amount of Gd recovered in Feces, 0–5 d: 1.44% ± 1.2%
  Amount of Gd recovered in Urine, 0–1 d: 99.2% ± 1.5%
  Amount of Gd recovered in Urine, 0–5 d: 100% ± 1.6%
  Total recovery of Gd, 0–7 d: 102% ± 4.1%
[4]; rat plasma
  AUC^∞: 234 ± 10 (4.3%) μmol·h/L
  γ-AUC: 1.1 % of AUC^∞
[4]; rat plasma, listed as gadobutrol
  γ-AUC: 1 % of AUC^∞
[4]; rat
  Clplasma: 0.43 ± 0.02 (4.3%) L/h/kg
  Vss: 0.29 ± 0.03 (9.1%) L/kg
[4]; rat, 3-compartment model
  β t1/2: 22 ± 0.69 (3.2%) min
  γ t1/2: 13 ± 2.0 (16%) h
[4]; rat, 3-compartment model, mean estimate ± SD (CV%)
  α t1/2: 2.5 ± 1.1 (42%) min
[5]
  Viscosity at 37°C: 5.0∥ mPa·s
Partition coefficient
  Log P (1-Butanol/Buffer): −2.22
[6]
  Gd release after 21 days in human serum (below LLOQ): < 0.1 nmol Gd/g
[7]
  No. Inner Sphere Water Molecules (q): q = 1
[8]; ref Szomolanyi et al, 23, listed as gadobutrol
  r1-Relaxivity in Human Plasma at 37°C, 1.5 T: 4.8 mM⁻¹ s⁻¹
[8]; ref Szomolanyi et al, 23
  r1-Relaxivity in Human Plasma at 37°C, 1.5 T: 4.8 ± 0.1§ mM^−1 s^−1
[9]
  Decrease of the T1 relaxation rates (R1) in zinc transmetallation assay: no change

## CNC[C@H](O)[C@@H](O)[C@H](O)[C@H](O)CO.CNC[C@H](O)[C@@H](O)[C@H](O)[C@H](O)CO.O=C([O-])CN(CCN(CC(=O)[O-])CC(=O)O)CCN(CC(=O)[O-])CC(=O)O.[Gd+3] [Gadopentetate dimeglumine, gadopentetate dimeglumine]
[9]
  Decrease of the T1 relaxation rates (R1) in zinc transmetallation assay: 66%

## CNC[C@H](O)[C@@H](O)[C@H](O)[C@H](O)CO.O=C([O-])CN1CCN(CC(=O)[O-])CCN(CC(=O)O)CCN(CC(=O)[O-])CC1.[Gd+3] [Gadoterate meglumine, gadoterate meglumine]
[1]
  r1-Relaxivity in Human Plasma at 37°C, 3.0 T: 3.0 ± 0.1§ mM^−1 s^−1
[10]
  Log P (1-Butanol/Buffer): −2.87∥
[2]
  Osmolality at 37°C: 1350∥ mosmol/kg H2O
[5]
  Viscosity at 37°C: 2.0∥ mPa·s
[7]
  No. Inner Sphere Water Molecules (q): q = 1
[8]; ref Szomolanyi et al, 23, listed as gadoterate meglumine
  r1-Relaxivity in Human Plasma at 37°C, 1.5 T: 3.3 mM⁻¹ s⁻¹
[8]; ref Szomolanyi et al, 23
  r1-Relaxivity in Human Plasma at 37°C, 1.5 T: 3.3 ± 0.1§ mM^−1 s^−1
[9]
  Decrease of the T1 relaxation rates (R1) in zinc transmetallation assay: no change

## CC(O)CN1CCN(CC(=O)[O-])CCN(CC(=O)[O-])CCN(CC(=O)[O-])CC1.[Gd+3] (centres unmarked) [Gadoteridol]
[1]
  r1-Relaxivity in Human Plasma at 37°C, 3.0 T: 3.3 ± 0.1§ mM^−1 s^−1
[10]
  Log P (1-Butanol/Buffer): −1.98∥
[2]
  Osmolality at 37°C: 630∥ mosmol/kg H2O
[5]
  Viscosity at 37°C: 1.3∥ mPa·s
[7]
  No. Inner Sphere Water Molecules (q): q = 1
[8]; ref Szomolanyi et al, 23
  r1-Relaxivity in Human Plasma at 37°C, 1.5 T: 3.8 ± 0.1§ mM^−1 s^−1

## Gadopiclenol
[11]
  log Kcond: 15.5

## Gd-PCTA
[11]
  log Kcond: 15.5
